Experimental data taken from patent publication US8691863B2, “Use of active substance combinations having insecticidal properties for controlling animal pests from the stink bug family” (Bayer CropScience AG, priority 2007, dated 2014).

How the values were obtained:
[1] = tested on: brown stink bug (Euschistus heros); assay: Field trial on soybean plots against brown stink bug, kill efficiency of the nymphs; format: in vivo; details: nymphs on soybean cv. BRS232, 14 days after spray treatment; application rate g a.i./ha: imidacloprid 72, (I-2) 24, mixture 72 + 24, methamidophos 480; tank mix with 0.1% a.i. methylated soya oil
Source text: (§1) The expected activity for a given combination of two active substances can be calculated as described by S. R. Colby, Weeds 15 (1967), 20-22, as follows:
(§2) If the actual insecticidal kill efficiency is greater than calculated, then the combination is superadditive in its kill efficiency, i.e. a synergistic effect is present. In this case, the kill efficiency actually observed must be greater than the value for the expected kill efficiency (E) calculated with the abovementioned formula.
(§3) After the desired period of time, the kill efficiency is determined in %. Here, 100% means that all animals have been killed; 0% means that no animals have been killed.
Methamidophos (SL 600) was tested concomitantly as commercially available standard. The water application rate is 200 l/ha.

[2] = tested on: red-banded stink bug (Piezodorus guildinii); assay: Caged soybean plot trial against red-banded stink bug, kill efficiency of the adults; format: in vivo; details: application rate g a.i./ha: imidacloprid 70, (I-2) 24, mixture 72 + 24, methamidophos 480, tank mix with 0.1% a.i. methylated soya oil; for Kill efficiency as calculated by Abbott (%) 1 d: adults on soybean cv. CO-32, 1 day after spray treatment; for Kill efficiency as calculated by Abbott (%) 3 d: adults on soybean cv. CO-32, 3 days after spray treatment
Source text: as §1, §2, §3
Plots approximately 1 m^2 in size, provided with cages and planted with soybean plants (Glycine max) cv. “CO-32” are treated in four replications against the red-banded stink bug (Piezodorus guildinii) using a pneumatically operated backpack sprayer. A mixture of the active substance (I-2) and imidacloprid (SC 480) is applied in comparison with the active substance (I-2) (SC 240) on its own and imidacloprid (SC 200) on its own at the application rates specified, as a tank mix with 0.1% a.i. methylated soya oil (EC 850). Methamidophos (SL 600) was tested concomitantly as commercially available standard. The water application rate is 300 l/ha. The evaluation is performed 1 and 3 days after the treatment by determining the kill efficiency of the adults.

| SMILES | Kill efficiency as calculated by Abbott (%) 14 d [1] | Kill efficiency as calculated by Abbott (%) 1 d [2] | Kill efficiency as calculated by Abbott (%) 3 d [2] |
| --- | --- | --- | --- |
| COP(N)(=O)SC (stereo not drawn) [Methamidophos] | 27% | 52.5% | 87.5% |
| O=[N+]([O-])/N=C1\NCCN1Cc1ccc(Cl)nc1 [Imidacloprid, imidacloprid] | 21% | 65% | 65% |
